Counter-ions that a name gives are not always drawn.
Legend:
SMYD3 [1] = target: T1, SMYD3 (Homo sapiens (Human), UniProt Q9H7B4); test: SMYD3 biochemical assay (SMYD3 enzyme assay on MEKK2 protein substrate, 3H-SAM scintillation proximity assay); settings: read-out: SMYD3 Biochem IC50
How it was run: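 Detection used scintillation proximity beads to capture ³H-methylated GST-MEKK2 after quench with 100 uM final cold SAM. The reaction was started by SAM/MEKK2 addition after a 30 min RT compound–enzyme preincubation. Enzyme was tag-free full-length human SMYD3 from E. coli, in buffer of 25 mM Tris-Cl pH 8.0, 1 mM TCEP, 0.005% BSG, 0.005% Tween 20.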

SMYD3 [2] = target: T1, SMYD3; test: SMYD3 cell assay (Trimethyl-MEKK2 In-Cell Western in 293T/17 cells transfected with MEKK2-flag and SMYD3); type: cell-based
Excerpt: Trimethyl-MEKK2-in-Cell Western Assay
MEM/Glutamax medium, Optimem Reduced Serum medium, penicillin-streptomycin, 0.05% trypsin and 1×D-PBS were purchased from Life Technologies, Grand Island, N.Y., USA. PBS-10× was purchased from Ambion, Life Technologies, Grand Island, N.Y., USA. PBS with Tween 20 (PBST (10×)) was purchased from KPL, Gaithersburg, Md., USA. Tet System FBS-approved FBS US Source was purchased from Clontech, Mountain View, Calif., USA. Odyssey blocking buffer, 800CW goat anti-rabbit IgG (H+L) antibody, 680CW Goat anti-mouse IgG (H+L) and Licor Odyssey infrared scanner were purchased from Licor Biosciences, Lincoln, Nebr., USA. Tri-methyl-Lysine [A260]-MEKK2 antibody, MEKK2 and SMYD3 plasmids were made at Epizyme. Anti-flag monoclonal mouse antibody was purchased from Sigma, St. Louis, Mo., USA. Methanol was purchased from VWR, Franklin, Mass., USA. 10% Tween 20 was purchased from KPL, Inc., Gaithersburg, Md., USA. Fugene was purchased from Promega, Madison, Wis., USA. The Biotek ELx405 was purchased from BioTek, Winooski, Vt., USA. The multidrop combi was purchased from Thermo Scientific, Waltham, Mass., USA.
Cell Treatment, in Cell Western (ICW) for Detection of Trimethyl-Lysine-MEKK2 and MEKK2.
Plasmids were prepared for delivery to cells by first mixing 1350 μL Opti-MEM with Fugene (81 μL) in a sterile Eppendorf and incubated for five minutes at room temperature (RT). […] Entire volume of Opti-MEM/Fugene mixture was then added to a microfuge tube containing DNA plasmid, mixed and then incubated ×15 minutes at RT. […] Medium was then removed, and cells were washed once with PBS in the flask. Trypsin 0.05% (3 mL) was added and cells incubated for three minutes. Room temperature MEM+10% Tet system FBS was added and cells were mixed gently, and counted using the Vi-cell. Cells were seeded at 100,000 cells/mL in 50 μL MEM/10% Tet FBS/Pen/Strep to a 384 well black/clear poly-D-lysine coated plate containing test agent diluted in DMSO. The final top concentration of test compound was 40 μM. […] Plates were incubated ×30 minutes at RT in low-airflow area, followed by incubation at 37° C. under 5% CO2 for 24 hours. Medium was aspirated from all wells of assay plates prior to fixation and permeabilization with ice cold (−20° C.) methanol (90 μL/well) for ten minutes. Plates were rinsed with PBS three times on BioTek ELx405. PBS was removed with a final aspiration, and Odyssey blocking buffer (50 μL/well) was added to each well and incubated for one hour at RT. Primary antibody solution was prepared (anti-trimethyl-MEKK2 at 1:600 dilution plus mouse anti-flag antibody at 1:10,000 dilution in diluent (Odyssey Blocking buffer+0.1% Tween 20)) and 20 μL per well was dispensed using the Multidrop Combi. Assay plates were then sealed with foil, and incubated overnight at 4° C. Plates were washed five times with PBS-Tween (1×) on Biotek ELx405 and blotted on paper towel to remove excess reagent.
First, the ratio for each well was determined by:
Each plate included fourteen control wells of DMSO only treatment (Minimum Inhibition) as well as fourteen control wells for maximum inhibition (Background). The average of the ratio values for each control type was calculated and used to determine the percent inhibition for each test well in the plate. Reference compound was serially diluted two-fold in DMSO for a total of nine test concentrations, beginning at 40 μM. Percent inhibition was calculated (below).
Non-linear regression curves were generated to calculate the IC50 and dose-response relationship using triplicate wells per concentration of compound.

[3] = Table 3A, average of n = 1 to n = 50
[4] = Table 3A, average of n = 1 to n = 50, read-out: SMYD3 cell IC50

T1 sequence (Q9H7B4 whole entry): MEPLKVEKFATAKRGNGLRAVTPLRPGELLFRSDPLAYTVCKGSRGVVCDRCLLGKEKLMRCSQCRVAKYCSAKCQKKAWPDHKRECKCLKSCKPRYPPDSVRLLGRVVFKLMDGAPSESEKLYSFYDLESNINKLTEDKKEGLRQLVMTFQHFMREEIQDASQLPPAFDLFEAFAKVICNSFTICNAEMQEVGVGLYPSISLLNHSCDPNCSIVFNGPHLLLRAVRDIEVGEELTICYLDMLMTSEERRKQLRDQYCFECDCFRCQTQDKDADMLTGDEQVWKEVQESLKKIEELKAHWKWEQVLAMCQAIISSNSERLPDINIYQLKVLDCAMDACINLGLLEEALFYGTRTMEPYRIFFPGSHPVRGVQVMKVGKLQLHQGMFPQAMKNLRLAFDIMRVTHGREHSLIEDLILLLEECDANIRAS

IC50 (SMYD3 [2]; read-out: SMYD3 Cell IC50)	Structure (SMILES)	IC50 (SMYD3 [1]; [3])	IC50 (SMYD3 [2]; [4])	IC50 (SMYD3 [2])	IC50 (SMYD3 [1])
–	NC1CCN(S(=O)(=O)N2[C@@H]3CC[C@H]2C[C@@H](NC(=O)c2cc4c(cc2Cl)NC(=O)C4)C3)CC1 [compound 579, N-((1R,3r,5S)-8-((4-aminopiperidin-1-yl)sulfonyl)-8-azabicyclo[3.2.1]octan-3-yl)-6-chloro-2-oxoindoline-5-carboxamide]	0.81 nM	1130 nM	–	–
–	O=C(N[C@H]1C[C@H]2CC[C@@H](C1)N2S(=O)(=O)CC1CCNCC1)c1ccc2[nH]c(=O)oc2c1 [Cpd. No. 601, 2-oxo-N-((1R,3r,5SR)-8-(piperidin-4-ylmethylsulfonyl)-8-aza-bicyclo[3.2.1]octan-3-yl)-2,3-dihydrobenzo[d]oxazole-6-carboxamide Hydrochloride]	5.21 nM	4540 nM	–	–
–	O=C(N[C@H]1C[C@H]2CC[C@@H](C1)N2S(=O)(=O)[C@H]1CC[C@H](NCc2ccccc2)CC1)c1ccc2c(c1)OC(F)(F)O2 [compound 627, N-((1R,3R,5S)-8-(((1r,4R)-4-(benzylamino)cyclohexyl)sulfonyl)-8-azabicyclo[3.2.1]octan-3-yl)-2,2-difluorobenzo[d][1,3]dioxole-5-carboxamide]	225 nM	1540 nM	–	–
–	C[C@H]1C[C@@H](NC(=O)c2cc3c(cc2Cl)NC(=O)C3)CCN1S(=O)(=O)c1ccc(C(C)(C)N)cc1 [compound 588, N-((2S,4S)-1-((4-(2-aminopropan-2-yl)phenyl)sulfonyl)-2-methylpiperidin-4-yl)-6-chloro-2-oxoindoline-5-carboxamide]	1.98 nM	356 nM	–	–
–	CN1C(=O)Cc2cc(C(=O)N[C@H]3C[C@H]4CC[C@@H](C3)N4S(=O)(=O)N3CCC(N)CC3)c(Cl)cc21 [compound 604, N-((1R,3r,5S)-8-((4-aminopiperidin-1-yl)sulfonyl)-8-azabicyclo[3.2.1]octan-3-yl)-6-chloro-1-methyl-2-oxoindoline-5-carboxamide]	13.5 nM	207 nM	–	–
–	O=C1Cc2cc(C(=O)N[C@H]3C[C@H]4CC[C@@H](C3)N4S(=O)(=O)CC3CCN(CCCC(F)(F)F)CC3)c(Cl)cc2N1 [Cpd. No. 595, 6-chloro-2-oxo-N-((1S,3r,5R)-8-((1-(4,4,4-trifluorobutyl)piperidin-4-yl)methylsulfonyl)-8-aza-bicyclo[3.2.1]octan-3-yl)indoline-5-carboxamide]	3.54 nM	36.1 nM	–	–
–	CN1C(=O)Cc2cc(C(=O)N[C@H]3C[C@H]4CC[C@@H](C3)N4S(=O)(=O)CC3CCNCC3)c(Cl)cc21 [compound 617, 6-chloro-1-methyl-2-oxo-N-((1R,3r,5S)-8-((piperidin-4-ylmethyl)sulfonyl)-8-azabicyclo[3.2.1]octan-3-yl)indoline-5-carboxamide]	52.3 nM	2960 nM	–	–
–	O=C1Cc2cc(C(=O)N[C@H]3C[C@H]4CC[C@@H](C3)N4S(=O)(=O)N3CCC(NCc4ccccc4)CC3)ccc2N1 [Cpd. No. 587, N-[(1R,3r,5S)-8-[4-(benzylamino)piperidine-1-sulfonyl]-8-azabicyclo[3.2.1]octan-3-yl]-2-oxo-2,3-dihydro-1H-indole-5-carboxamide]	1.98 nM	71 nM	–	–
–	NC1CCN(S(=O)(=O)N2[C@@H]3CC[C@H]2C[C@@H](NC(=O)c2ccc4c(c2)OCC(=O)N4)C3)CC1 [compound 636, N-((1R,3r,5S)-8-((4-aminopiperidin-1-yl)sulfonyl)-8-azabicyclo[3.2.1]octan-3-yl)-3-oxo-3,4-dihydro-2H-benzo[b][1,4]oxazine-7-carboxamide]	819 nM	–	≥ 10000 nM	–
–	C[C@H]1Oc2ccc(C(=O)N[C@H]3C[C@H]4CC[C@@H](C3)N4S(=O)(=O)CC3CCNCC3)cc2NC1=O [Cpd. No. 625, (2R)-2-methyl-3-oxo-N-[(1R,3r,5S)-8-[(piperidin-4-ylmethane)sulfonyl]-8-azabicyclo[3.2.1]octan-3-yl]-3,4-dihydro-2H-1,4-benzoxazine-6-carboxamide Hydrochloride]	185 nM	≥ 10000 nM	–	–
–	N[C@H]1CC[C@H](S(=O)(=O)N2[C@@H]3CC[C@H]2C[C@@H](NC(=O)c2ccc4c(c2)CC(=O)N4)C3)CC1 [compound 575, N-((1R,3R,5S)-8-(((1r,4R)-4-aminocyclohexyl)sulfonyl)-8-azabicyclo[3.2.1]octan-3-yl)-2-oxoindoline-5-carboxamide]	–	2170 nM	–	0.44 nM
–	C[C@H]1C[C@@H](NC(=O)c2cnn(C3CC3)c2)CCN1S(=O)(=O)N1CCC(N)CC1 [compound 639, N-((2S,4S)-1-((4-aminopiperidin-1-yl)sulfonyl)-2-methylpiperidin-4-yl)-1-cyclopropyl-1H-pyrazole-4-carboxamide]	1000 nM	≥ 10000 nM	–	–
> 40000 nM	C[C@@H](N)CC(=O)N[C@H]1CC[C@H](NC(=O)c2ccc3c(c2)CC(=O)N3)CC1 [compound 453, N-((1r,4r)-4-((R)-3-aminobutanamido)cyclohexyl)-2-oxoindoline-5-carboxamide]	–	–	–	260 nM
–	O=C1Cc2cc(C(=O)N[C@H]3C[C@H]4CC[C@@H](C3)N4S(=O)(=O)CC3CCN(CCCO)CC3)ccc2N1 [compound 581, N-((1R,3r,5S)-8-(((1-(3-hydroxypropyl)piperidin-4-yl)methyl)sulfonyl)-8-azabicyclo[3.2.1]octan-3-yl)-2-oxoindoline-5-carboxamide]	0.95 nM	1670 nM	–	–
–	C[C@H]1CC(NC(=O)c2ccc3c(c2)CC(=O)N3)CCN1S(=O)(=O)c1ccc(C(C)(C)N)cc1 (stereo partly drawn) [compound 584, N-((2S)-1-((4-(2-aminopropan-2-yl)phenyl)sulfonyl)-2-methylpiperidin-4-yl)-2-oxoindoline-5-carboxamide]	1.47 nM	653 nM	–	–
–	O=C1Cc2cc(C(=O)N[C@H]3C[C@H]4CC[C@@H](C3)N4S(=O)(=O)CCN3CCCC3)ccc2N1 [compound 615, 2-oxo-N-((1R,3r,5S)-8-((2-(pyrrolidin-1-yl)ethyl)sulfonyl)-8-azabicyclo[3.2.1]octan-3-yl)indoline-5-carboxamide]	–	761 nM	–	49.7 nM
–	O=C(N[C@H]1C[C@H]2CC[C@@H](C1)N2S(=O)(=O)CC1CCNCC1)c1ccc2c(c1)OC(F)(F)O2 [compound 628, 2,2-difluoro-N-((1R,3r,5S)-8-((piperidin-4-ylmethyl)sulfonyl)-8-azabicyclo[3.2.1]octan-3-yl)benzo[d][1,3]dioxole-5-carboxamide]	232 nM	3620 nM	–	–
–	O=C1Cc2cc(C(=O)N[C@H]3C[C@H]4CC[C@@H](C3)N4S(=O)(=O)CC3CCNCC3)ccc2N1 [compound 597, 2-oxo-N-((1R,3r,5S)-8-((piperidin-4-ylmethyl)sulfonyl)-8-azabicyclo[3.2.1]octan-3-yl)indoline-5-carboxamide]	3.98 nM	3440 nM	–	–
–	NC1CCN(S(=O)(=O)N2[C@@H]3CC[C@H]2C[C@@H](NC(=O)c2ccc4c(c2)NC(=O)CO4)C3)CC1 [compound 609, N-((1R,3r,5S)-8-(4-aminopiperidin-1-ylsulfonyl)-8-aza-bicyclo[3.2.1]octan-3-yl)-3-oxo-3,4-dihydro-2H-benzo[b][1,4]oxazine-6-carboxamide Hydrochloride]	23.7 nM	3700 nM	–	–
